Here are results for 18 compounds from PMC11054528, “Evaluation of Physicochemical Properties of Ipsapirone Derivatives Based on Chromatographic and Chemometric Approaches” (Molecules, 2024).

Molecules are shown by their SMILES.

Series [1] in a line: IAM-HPLC, immobilized artificial membrane chromatography (affinity to phospholipids). Conditions: IAM.PC.DD2 column, pH 7.4. It counts as physicochemical. Also noted: scale not given here. From the text:
In considering that lipophilicity is a known factor influencing passive diffusion across the BBB, this is an important observation. The affinity to phospholipids can also be determined using one-gradient protocols and the IAM column. CHIIAM can be used as a cut-off point to indicate the potential for promiscuous binding and interference with phospholipids.
The immobilized artificial membrane column (IAM.PC.DD2, 10 × 4.6 mm × 10.0 µm with a guard column (Regis Technologies; Morton Grove, IL, USA) was used for IAM-HPLC experiments. The column temperature was set to 30 °C. Similar to RP-HPLC, mobile phase A was a 50 mM ammonium acetate at pH 7.4, and mobile phase B was acetonitrile. The linear gradient from […] ACN was applied from 0 to 5.25 min and held at 98% ACN for 0.5 min at a constant flow rate of 1.5 mL/min.

The nature of series [2]: Fast gradient RP-HPLC on C18 column (CHI lipophilicity). It counts as physicochemical. The following applies: for CHIC18 pH = 2.6 / CHIC18 pH = 7.4 / CHIC18 pH = 10.6: C18 column; for CHI LogP: from chromatographically determined CHI on nonionized forms (pH 10.6), CHI LogP = 0.054 × CHI − 1.467. The text has this:
Considering the significant differences in the calculations obtained, the next step of our investigation considered the determination of lipophilicity using a chromatographic approach. Among the available protocols, the fast gradient approach developed by Valko was chosen because it enables the assessment of lipophilicity from a single chromatographic measurement. In addition, this approach enables the determination of the acid/basic properties of molecules through the addition of experiments under different pH conditions.
Therefore, the CHI under pH10.6 can be considered and converted to chromatographically determined LogP, called CHI LogP. A cluster analysis (CA) was performed to compare chromatographically determined and calculated lipophilicity. A CA can be used for the visualization of similarities and differences between studied objects, in this case, lipophilic parameters. The obtained results clearly indicate that significant differences between theoretical and experimental data occurred, and they formed two separate groups (Figure 1). The differences are also visible on the calculated correlation matrix (Figure 2).
For RP-HPLC experiments, a C18 Hypersil GOLD^TM (50 mm × 4.6 mm; 5.0 µm with a guard column; Thermo Scientific, Waltham, MA, USA) column was applied. The column temperature was set to 40 °C. Three water solutions were used as mobile phase A: acetic acid at pH 2.6, […] at pH 7.4, and 50 mM ammonium acetate at pH 10.5. Mobile phase B was acetonitrile (ACN). The linear gradient from 2 to 98% ACN was applied from 0 to 5.25 min and held at 98% ACN for 1.75. The mobile phase flow rate was 1.5 mL/min throughout the experiment.

In series [3] the target is human serum albumin (HSA) (Homo sapiens, UniProt P02768). In words: HSA-HPLC, biomimetic chromatography on Chiralpak HSA column. It counts as in vitro ADME. Also noted: purchased Daicel Chiral Technologies, West Chester, PA, USA. Conditions: for LogKHSA: pH 7.4; for %HSA: pH 7.4, recalculated from logKHSA. From the text: Utilizing columns modified by plasma proteins, such as human serum albumin (HSA), allows for estimating binding to plasma protein (PPB). Generally, PPB affects drug pharmacokinetics, including distribution, half-life, and clearance. While lipophilicity is a well-known factor in determining PPB, it should also be considered in early drug discovery. In general, more lipophilic compounds tend to have higher percentages of PP due to nonspecific interactions with proteins. However, hydrophilic compounds can also bind strongly to PP through […] and electrostatic interactions by binding in protein pockets.
Chain of human serum albumin (HSA) (P02768 25-609): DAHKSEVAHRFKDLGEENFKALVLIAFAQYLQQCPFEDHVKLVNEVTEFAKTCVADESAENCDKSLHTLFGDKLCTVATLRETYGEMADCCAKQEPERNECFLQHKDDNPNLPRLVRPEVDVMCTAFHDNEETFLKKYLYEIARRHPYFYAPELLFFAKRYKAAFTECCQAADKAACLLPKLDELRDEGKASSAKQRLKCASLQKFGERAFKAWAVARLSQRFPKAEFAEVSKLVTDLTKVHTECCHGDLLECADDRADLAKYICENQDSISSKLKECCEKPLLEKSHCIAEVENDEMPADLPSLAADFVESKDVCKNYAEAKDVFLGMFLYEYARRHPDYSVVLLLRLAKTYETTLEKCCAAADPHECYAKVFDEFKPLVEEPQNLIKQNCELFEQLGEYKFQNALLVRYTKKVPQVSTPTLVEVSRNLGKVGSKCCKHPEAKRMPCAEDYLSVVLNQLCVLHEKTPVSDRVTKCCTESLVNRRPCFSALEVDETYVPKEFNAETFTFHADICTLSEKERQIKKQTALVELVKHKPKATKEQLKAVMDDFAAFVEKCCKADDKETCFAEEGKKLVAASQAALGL
For HSA-HPLC experiments, the column was Chiralpak® HSA (100 × 4 mm; 5 µm with safety guard column; Daicel Chiral Technologies, West Chester, PA, USA). The column temperature was set to 30 °C. The same phase A as in the IAM-HPLC case was used, and the mobile phase B was isopropanol (i-PrOH). The linear gradient from 0 to 20% i-PrOH was applied from 0 to 15 min, held at 20% i-PrOH for 12 min, and then returned to pure ammonium acetate solution. The mobile phase flow rate was 0.9 mL/min throughout the experiment. Three minutes of column recalibration was applied between each run. The retention times were collected at wavelengths between 190 and 300 nm, and the injection volume was 10 μL.

Compound `COc1ccccc1N1CCN(CCCCN2C(=O)c3ccccc3S2(=O)=O)CC1` [molecule 2] displayed a CHIIAM in series [1] of 46.90. Besides, in series [2], the “CHIC18 pH = 2.6” value is listed as 60.08, the “CHIC18 pH = 7.4” value is 110.90, the “CHIC18 pH = 10.6” value came to 109.41 and the “CHI LogP” value was determined as 4.44. Besides, in series [3], the LogKHSA amounted to 1.72 and the “%HSA” value is reported as 99.13%.

Consider `O=C1c2ccccc2S(=O)(=O)N1CCCCN1CCN(c2cccc(Cl)c2Cl)CC1` [molecule 3], for which the CHIIAM in series [1] was determined as 35.71. In series [2], the “CHIC18 pH = 2.6” value stood at 49.19, the “CHIC18 pH = 7.4” value came to 78.80, the “CHIC18 pH = 10.6” value was determined as 87.69 and the “CHI LogP” value is 3.27. Also, in series [3], the LogKHSA turned out to be 0.52 and the “%HSA” value was 77.60%.

The compound `O=C1c2ccccc2S(=O)(=O)N1CCCCN1CCN(c2ccc(Cl)cc2)CC1` [molecule 4] registered a CHIIAM in series [1] of 42.61. Also, in series [2], the “CHIC18 pH = 2.6” value was 56.31, the “CHIC18 pH = 7.4” value worked out at 100.82, the “CHIC18 pH = 10.6” value is listed as 100.70 and the “CHI LogP” value worked out at 3.97. In series [3], the LogKHSA turned out to be 1.32 and the “%HSA” value is 96.38%.

`O=C1c2ccccc2S(=O)(=O)N1CCCCCN1CCN(c2ccccc2)CC1` [molecule 5]: the CHIIAM in series [1] worked out at 39.09. In addition, in series [2], the “CHIC18 pH = 2.6” value worked out at 52.20, the “CHIC18 pH = 7.4” value came to 89.50, the “CHIC18 pH = 10.6” value is 95.60 and the “CHI LogP” value was 3.70. In series [3], the LogKHSA is recorded as 0.84 and the “%HSA” value is on record as 88.23%.

With `COc1ccccc1N1CCN(CCCCCN2C(=O)c3ccccc3S2(=O)=O)CC1` [molecule 6], the CHIIAM in series [1] worked out at 38.03. In addition, in series [2], the “CHIC18 pH = 2.6” value amounted to 52.94, the “CHIC18 pH = 7.4” value is on record as 79.45, the “CHIC18 pH = 10.6” value is 91.77 and the “CHI LogP” value is listed as 3.49. Also, in series [3], the LogKHSA was determined as 0.68 and the “%HSA” value is on record as 83.59%.

Turning to `O=C1c2ccccc2S(=O)(=O)N1CCCCCN1CCN(c2cccc(Cl)c2Cl)CC1` [molecule 7], the CHIIAM in series [1] was 48.28. Moreover, in series [2], the “CHIC18 pH = 2.6” value came out at 72.79, the “CHIC18 pH = 7.4” value worked out at 112.26, the “CHIC18 pH = 10.6” value is 112.92 and the “CHI LogP” value is given as 4.63. Moreover, in series [3], the LogKHSA was 1.77 and the “%HSA” value is reported as 99.31%.

For `O=C1c2ccccc2S(=O)(=O)N1CCCCCN1CCN(c2ccc(Cl)cc2)CC1` [molecule 8], the CHIIAM in series [1] amounted to 44.30. Also, in series [2], the “CHIC18 pH = 2.6” value worked out at 97.99, the “CHIC18 pH = 7.4” value is 101.36, the “CHIC18 pH = 10.6” value was found to be 100.81 and the “CHI LogP” value turned out to be 3.98. In series [3], the LogKHSA came out at 1.53 and the “%HSA” value is recorded as 98.11%.

On to `O=C1c2ccccc2S(=O)(=O)N1CCCCCN1CCN(c2ncccn2)CC1` [molecule 9], for which the CHIIAM in series [1] is 34.40. Besides, in series [2], the “CHIC18 pH = 2.6” value is reported as 48.71, the “CHIC18 pH = 7.4” value was determined as 74.93, the “CHIC18 pH = 10.6” value turned out to be 81.12 and the “CHI LogP” value turned out to be 2.91. In series [3], the LogKHSA worked out at 0.58 and the “%HSA” value is 79.78%.

Compound `O=C1c2ccccc2S(=O)(=O)N1CCCCCN1CCN(c2ccccn2)CC1` [molecule 10] came in with a CHIIAM in series [1] of 35.73. In series [2], the “CHIC18 pH = 2.6” value worked out at 38.96, the “CHIC18 pH = 7.4” value came to 76.74, the “CHIC18 pH = 10.6” value was 84.51 and the “CHI LogP” value came to 3.10. In series [3], the LogKHSA was determined as 0.72 and the “%HSA” value is 84.71%.

As for `O=C1c2ccccc2S(=O)(=O)N1CCCCCN1CCN(c2cccc3ccccc23)CC1` [molecule 11], the CHIIAM in series [1] is 47.26. For the same compound, in series [2], the “CHIC18 pH = 2.6” value was 63.51, the “CHIC18 pH = 7.4” value is reported as 104.83, the “CHIC18 pH = 10.6” value is given as 111.43 and the “CHI LogP” value came to 4.55. Besides, in series [3], the LogKHSA came to 1.67 and the “%HSA” value was 98.90%.

In turn, `O=C1c2ccccc2S(=O)(=O)N1CCCCCCN1CCN(c2ccccc2)CC1` [molecule 12] showed a CHIIAM in series [1] of 41.59. Besides, in series [2], the “CHIC18 pH = 2.6” value is given as 55.26, the “CHIC18 pH = 7.4” value worked out at 93.84, the “CHIC18 pH = 10.6” value stood at 100.78 and the “CHI LogP” value was found to be 3.98. In addition, in series [3], the LogKHSA came to 1.00 and the “%HSA” value is 91.87%.

Turning to `COc1ccccc1N1CCN(CCCCCCN2C(=O)c3ccccc3S2(=O)=O)CC1` [molecule 13], the CHIIAM in series [1] was 40.54. Also, in series [2], the “CHIC18 pH = 2.6” value came to 54.89, the “CHIC18 pH = 7.4” value came to 84.12, the “CHIC18 pH = 10.6” value is on record as 96.78 and the “CHI LogP” value is given as 3.76. In series [3], the LogKHSA stood at 0.42 and the “%HSA” value is given as 73.28%.

The compound `COc1cccc(N2CCN(CCCCCCN3C(=O)c4ccccc4S3(=O)=O)CC2)c1` [molecule 14] registered a CHIIAM in series [1] of 41.42. Besides, in series [2], the “CHIC18 pH = 2.6” value turned out to be 55.41, the “CHIC18 pH = 7.4” value came out at 94.73, the “CHIC18 pH = 10.6” value is 99.75 and the “CHI LogP” value is 3.92. For the same compound, in series [3], the LogKHSA was found to be 0.93 and the “%HSA” value is on record as 90.46%.

Turning to `COc1ccc(N2CCN(CCCCCCN3C(=O)c4ccccc4S3(=O)=O)CC2)cc1` [molecule 15], in series [1], the CHIIAM came to 40.04. Besides, in series [2], the “CHIC18 pH = 2.6” value came out at 55.04, the “CHIC18 pH = 7.4” value is 87.50, the “CHIC18 pH = 10.6” value stood at 96.78 and the “CHI LogP” value worked out at 3.76. Moreover, in series [3], the LogKHSA was found to be 0.65 and the “%HSA” value is 82.67%.

For `O=C1c2ccccc2S(=O)(=O)N1CCCCCCN1CCN(c2cccc(Cl)c2)CC1` [molecule 16], in series [1], the CHIIAM came out at 46.73. In series [2], the “CHIC18 pH = 2.6” value was 61.89, the “CHIC18 pH = 7.4” value was found to be 108.61, the “CHIC18 pH = 10.6” value came out at 111.92 and the “CHI LogP” value came out at 4.58. In addition, in series [3], the LogKHSA stood at 1.71 and the “%HSA” value is recorded as 99.06%.

In series [1], `O=C1c2ccccc2S(=O)(=O)N1CCCCCCN1CCN(c2ccc(Cl)cc2)CC1` [molecule 17] showed a CHIIAM of 46.32. In addition, in series [2], the “CHIC18 pH = 2.6” value is reported as 61.34, the “CHIC18 pH = 7.4” value turned out to be 106.56, the “CHIC18 pH = 10.6” value is listed as 110.38 and the “CHI LogP” value is 4.49. Besides, in series [3], the LogKHSA is on record as 1.57 and the “%HSA” value is 98.36%.

Compound `O=C1c2ccccc2S(=O)(=O)N1CCCCCCN1CCN(c2ccc(Cl)c(Cl)c2)CC1` [molecule 18] registered a CHIIAM in series [1] of 50.19. Besides, in series [2], the “CHIC18 pH = 2.6” value is reported as 65.39, the “CHIC18 pH = 7.4” value turned out to be 119.04, the “CHIC18 pH = 10.6” value is listed as 118.39 and the “CHI LogP” value is on record as 4.93. Besides, in series [3], the “affinity to HSA compared with reference diclofenac” value was “higher affinity to reference diclofenac” and the LogKHSA is 2.27.

As to `O=C1c2ccccc2S(=O)(=O)N1CCCCCCN1CCN(c2cccc(C(F)(F)F)c2)CC1` [molecule 19], the CHIIAM in series [1] came out at 46.84. Also, in series [2], the “CHIC18 pH = 2.6” value worked out at 63.86, the “CHIC18 pH = 7.4” value came to 113.75, the “CHIC18 pH = 10.6” value is recorded as 114.05 and the “CHI LogP” value was found to be 4.69. In series [3], the LogKHSA was determined as 1.85 and the “%HSA” value is given as 99.61%.
